Here are results for four molecules from the NIST ThermoML archive (doi:10.1016/j.fluid.2015.02.018).

For data set [1] the following is noted: DTA; for Normal melting temperature: Crystal.
Data set [2] in a line: Molar enthalpy of transition or fusion. The settings on record: Crystal; DSC.

Numbers after ± are expanded uncertainties.

As to `COc1ccc2c(c1)c(CC(=O)O)c(C)n2C(=O)c1ccc(Cl)cc1`, the Normal melting temperature in data set [1] came out at 160.5 ± 0.4 °C. In data set [2], the “Molar enthalpy of transition or fusion” value was determined as 18 ± 0.359 kcal/mol.

In the case of `CN1[C@@H](CC(=O)c2ccccc2)CCC[C@H]1C[C@H](O)c1ccccc1.Cl` [(-)-lobeline hydrochloride], the Normal melting temperature in data set [1] amounted to 193.2 ± 0.4 °C. Moreover, the “Molar enthalpy of transition or fusion” value in data set [2] came to 18.2 ± 0.382 kcal/mol.

Regarding `Cn1c(=O)c2[nH]cnc2n(C)c1=O.Cn1c(=O)c2[nH]cnc2n(C)c1=O.NCCN` [aminophylline], in data set [1], the Normal melting temperature was determined as 269.1 ± 0.4 °C. Besides, in data set [2], the “Molar enthalpy of transition or fusion” value was determined as 6.19 ± 0.143 kcal/mol.

Turning to `OCCN1CCN(CCCN2c3ccccc3Sc3ccc(Cl)cc32)CC1` [perphenazine], in data set [1], the Normal melting temperature came to 93.7 ± 0.4 °C. Also, the Glass transition temperature in data set [1] (Glass) was found to be 18.7 ± 0.4 °C. The “Molar enthalpy of transition or fusion” value in data set [2] was determined as 10.8 ± 0.239 kcal/mol.
